{"source": "patent US9957246B2", "about": "“Prodrugs of tetrahydrocannabinol, compositions comprising prodrugs of tetrahydrocannabinol and methods of using the same” (Zynerba Pharmaceuticals, Inc., priority 2007, dated 2018)", "key": {"[1]": {"test": "Plasma stability of prodrugs (bioconversion to parent drug)", "format": "in vitro ADME", "procedure": "Approximately 1 mg/mL of stock solution of each prodrug was prepared in 100 μL of ethanol and 900 μL of acetonitrile. Next, 10 μL of stock was spiked into 1 mL of plasma and vortexed. The samples were kept sealed in an amber vial and samples were obtained to analyze for bioconversion to parent drug.\nAn approximated 1 mg/mL stock solution of each prodrug was prepared in 100 μL of ethanol and 900 μL of acetonitrile. Next, 10 μL of stock was spiked into 1 mL of plasma and vortexed. The samples were kept sealed in an amber vial and samples were obtained to analyze for bioconversion to parent drug.\nApproximately 1 mg/mL of stock solution of each prodrug was prepared in 100 μL of ethanol and 900 μL of acetonitrile. Ten μL of stock was spiked into 1 mL of plasma and vortexed. The samples were kept sealed in an amber vial and samples were obtained to analyze for bioconversion to parent drug."}, "[2]": {"test": "In vitro human skin permeation, flow-through diffusion cells"}, "[3]": {"details": "Table 19, 90:8:2 PG:H2O:IPM donor solution, analyte: THC or intact prodrug as applied"}, "[4]": {"details": "Table 3, 1:1:1 PG:ethanol:H2O donor solution"}, "[5]": {"details": "Table 5, 1:1:1 PG:ethanol:H2O donor solution and higher flow rate"}, "[6]": {"details": "Table 6, 1:1:1 PG:ethanol:H2O donor solution, receiver fluid 25% aqueous ethanol"}, "[7]": {"details": "Table 6, 1:1:1 PG:ethanol:H2O donor solution, receiver fluid 40% aqueous PEG 400"}, "[8]": {"details": "Table 7, 2.36:1.18:1 PG:ethanol:H2O donor solution, analyte: THC or intact prodrug as applied"}, "[9]": {"details": "Table 8, gel formulation, analyte: THC or intact prodrug as applied"}, "[10]": {"details": "Table 9, 2.36:1.18:1 pH = 5.5 PG:ethanol:H2O donor solution, analyte: THC or intact prodrug as applied"}, "[11]": {"details": "Table 10, 2.36:1.18:1 pH = 5.5 PG:ethanol:H2O donor solution, analyte: THC or intact prodrug as applied"}, "[12]": {"details": "Table 13, gel formulation with 40% aqueous PEG 400 receiver fluid, analyte: THC or intact prodrug as applied"}, "[13]": {"details": "Table 17, 90:8:2 PG:H2O:IPM donor solution, analyte: THC or intact prodrug as applied"}, "[14]": {"details": "Table 18, 90:8:2 PG:H2O:IPM donor solution, analyte: THC or intact prodrug as applied"}, "[15]": {"details": "Table 20, 90:8:2 PG:H2O:IPM donor solution (saturated), analyte: THC or intact prodrug as applied"}}}
{"smiles": "CCCCCc1cc(OC(=O)C2CCCN2)c2c(c1)OC(C)(C)[C@@H]1CCC(C)=C[C@@H]21", "note": "(stereo partly drawn) [ALL00125, Δ^9-Tetrahydrocannabinol prolyl ester]", "values": [{"measurement": "% Prodrug at time (h)", "setting": "[1]; Table 11, 0.1 h", "value": 100, "unit": "%"}, {"measurement": "% Prodrug at time (h)", "setting": "[1]; Table 11, 2 h", "value": 77, "unit": "%"}, {"measurement": "% Prodrug at time (h)", "setting": "[1]; Table 11, 5 h", "value": 55, "unit": "%"}, {"measurement": "% Prodrug at time (h)", "setting": "[1]; Table 11, 22 h", "value": 0, "unit": "%"}, {"measurement": "% Prodrug at time (h)", "setting": "[1]; Table 11, 24 h", "value": 0, "unit": "%"}, {"measurement": "% Prodrug at time (h)", "setting": "[1]; Table 11, 42 h", "value": 0, "unit": "%"}]}
{"smiles": "CCCCCc1cc(OC(=O)OCCCCN)c2c(c1)OC(C)(C)[C@@H]1CCC(C)=C[C@@H]21", "note": "[ALL00127, Δ^9-Tetrahydrocannabinol 4-aminobutyl carbonate]", "values": [{"measurement": "% Prodrug at time (h)", "setting": "[1]; Table 15, 0.1 h", "value": 100, "unit": "%"}, {"measurement": "% Prodrug at time (h)", "setting": "[1]; Table 15, 1 h", "value": 100, "unit": "%"}, {"measurement": "% Prodrug at time (h)", "setting": "[1]; Table 15, 2.5 h", "value": 91, "unit": "%"}, {"measurement": "% Prodrug at time (h)", "setting": "[1]; Table 15, 3.5 h", "value": 85, "unit": "%"}]}
{"smiles": "CCCCCc1cc(OC(=O)[C@H](O)CO)c2c(c1)OC(C)(C)[C@@H]1CCC(C)=C[C@@H]21", "note": "[ALL00144, THC (R)-2,3-dihydroxypropanoate]", "values": [{"measurement": "24 h cumulative amt", "setting": "[2]; [3]", "value": "137.9 ± 55.2", "unit": "nmol"}, {"measurement": "24 h skin conc", "setting": "[2]; [3]", "value": "65.5 ± 39.5", "unit": "µmol/g"}, {"measurement": "Flux", "setting": "[2]; [3]", "value": "8.6 ± 3.4", "unit": "nmol/cm^2/h"}, {"measurement": "Lag time", "setting": "[2]; [3]", "value": "7.2 ± 0.1", "unit": "h"}]}
{"smiles": "CCCCCc1cc(O)c2c(c1)OC(C)(C)[C@@H]1CCC(C)=C[C@@H]21", "note": "[Δ^9-tetrahydrocannabinol, reference compound]", "values": [{"measurement": "24 h cumulative amt", "setting": "[2]; Table 2, 100% PG donor solution", "value": "6.91 ± 2.1", "unit": "nmol"}, {"measurement": "24 h skin conc", "setting": "[2]; Table 2, 100% PG donor solution, analyte: THC or intact prodrug (PD)", "value": "74.8 ± 15.5", "unit": "µmol/g"}, {"measurement": "24 h cumulative amt", "setting": "[2]; [4]", "value": "9.0 ± 5.9", "unit": "nmol"}, {"measurement": "Flux", "setting": "[2]; [4]", "value": "0.93 ± 0.58", "unit": "nmol/cm^2/h"}, {"measurement": "Lag time", "setting": "[2]; [4]", "value": "13.0 ± 1.8", "unit": "h"}, {"measurement": "24 h skin conc", "setting": "[2]; Table 3, 1:1:1 PG:ethanol:H2O donor solution, analyte: THC or intact prodrug (PD)", "value": "59.4 ± 30.5", "unit": "µmol/g"}, {"measurement": "24 h cumulative amt", "setting": "[2]; Table 4, gel formulation", "value": "1.5 ± 0.3", "unit": "nmol"}, {"measurement": "Flux", "setting": "[2]; Table 4, gel formulation", "value": "0.14 ± 0.03", "unit": "nmol/cm^2/h"}, {"measurement": "Lag time", "setting": "[2]; Table 4, gel formulation", "value": "11.2 ± 2.7", "unit": "h"}, {"measurement": "24 h skin conc", "setting": "[2]; Table 4, gel formulation, analyte: THC or intact prodrug (PD)", "value": "100.4 ± 5.8", "unit": "µmol/g"}, {"measurement": "24 h cumulative amt", "setting": "[2]; [5]", "value": "6.0 ± 2.1", "unit": "nmol"}, {"measurement": "24 h skin conc", "setting": "[2]; [5]", "value": "133.8 ± 52.3", "unit": "µmol/g"}, {"measurement": "Flux", "setting": "[2]; [5]", "value": "0.67 ± 0.15", "unit": "nmol/cm^2/h"}, {"measurement": "Lag time", "setting": "[2]; [5]", "value": "8.9 ± 7.2", "unit": "h"}, {"measurement": "24 h cumulative amt", "setting": "[2]; [6]", "value": "9.4 ± 0.2", "unit": "nmol"}, {"measurement": "24 h skin conc", "setting": "[2]; [6]", "value": "24.1 ± 5.2", "unit": "µmol/g"}, {"measurement": "Flux", "setting": "[2]; [6]", "value": "0.70 ± 0.01", "unit": "nmol/cm^2/h"}, {"measurement": "Lag time", "setting": "[2]; [6]", "value": "6.9 ± 0.2", "unit": "h"}, {"measurement": "24 h cumulative amt", "setting": "[2]; [7]", "value": "28.6 ± 3.2", "unit": "nmol"}, {"measurement": "24 h skin conc", "setting": "[2]; [7]", "value": "17.4 ± 11.6", "unit": "µmol/g"}, {"measurement": "Flux", "setting": "[2]; [7]", "value": "1.79 ± 0.39", "unit": "nmol/cm^2/h"}, {"measurement": "Lag time", "setting": "[2]; [7]", "value": "6.4 ± 1.6", "unit": "h"}, {"measurement": "24 h cumulative amt", "setting": "[2]; [8]", "value": "43.1 ± 4.8", "unit": "nmol"}, {"measurement": "24 h skin conc", "setting": "[2]; [8]", "value": "75.2 ± 33.1", "unit": "µmol/g"}, {"measurement": "Flux", "setting": "[2]; [8]", "value": "3.1 ± 0.2", "unit": "nmol/cm^2/h"}, {"measurement": "Lag time", "setting": "[2]; [8]", "value": "9.0 ± 2.9", "unit": "h"}, {"measurement": "24 h cumulative amt", "setting": "[2]; [9]", "value": "10.7 ± 2.1", "unit": "nmol"}, {"measurement": "24 h skin conc", "setting": "[2]; [9]", "value": "40.9 ± 14.7", "unit": "µmol/g"}, {"measurement": "Flux", "setting": "[2]; [9]", "value": "0.62 ± 0.23", "unit": "nmol/cm^2/h"}, {"measurement": "Lag time", "setting": "[2]; [9]", "value": "5.3 ± 3.3", "unit": "h"}, {"measurement": "24 h cumulative amt", "setting": "[2]; [10]", "value": "16.3 ± 7.3", "unit": "nmol"}, {"measurement": "24 h skin conc", "setting": "[2]; [10]", "value": "16.1 ± 0.5", "unit": "µmol/g"}, {"measurement": "Flux", "setting": "[2]; [10]", "value": "1.3 ± 0.5", "unit": "nmol/cm^2/h"}, {"measurement": "Lag time", "setting": "[2]; [10]", "value": "11.4 ± 0.6", "unit": "h"}, {"measurement": "24 h cumulative amt", "setting": "[2]; [11]", "value": "33.6 ± 11.2", "unit": "nmol"}, {"measurement": "24 h skin conc", "setting": "[2]; [11]", "value": "7.4 ± 0.6", "unit": "µmol/g"}, {"measurement": "Flux", "setting": "[2]; [11]", "value": "2.7 ± 1.1", "unit": "nmol/cm^2/h"}, {"measurement": "Lag time", "setting": "[2]; [11]", "value": "10.8 ± 1.4", "unit": "h"}, {"measurement": "24 h cumulative amt", "setting": "[2]; [12]", "value": "3.1 ± 0.8", "unit": "nmol"}, {"measurement": "24 h skin conc", "setting": "[2]; [12]", "value": "3.6 ± 1.7", "unit": "µmol/g"}, {"measurement": "Flux", "setting": "[2]; [12]", "value": "0.17 ± 0.02", "unit": "nmol/cm^2/h"}, {"measurement": "Lag time", "setting": "[2]; [12]", "value": "4.6 ± 3.2", "unit": "h"}, {"measurement": "24 h cumulative amt", "setting": "[2]; [13]", "value": "16.3 ± 0.3", "unit": "nmol"}, {"measurement": "24 h skin conc", "setting": "[2]; [13]", "value": "6.1 ± 1.9", "unit": "µmol/g"}, {"measurement": "Flux", "setting": "[2]; [13]", "value": "1.0 ± 0.3", "unit": "nmol/cm^2/h"}, {"measurement": "Lag time", "setting": "[2]; [13]", "value": "5.8 ± 5.9", "unit": "h"}, {"measurement": "24 h cumulative amt", "setting": "[2]; [14]", "value": "53.3 ± 0.0", "unit": "nmol"}, {"measurement": "24 h skin conc", "setting": "[2]; [14]", "value": "17.4 ± 9.2", "unit": "µmol/g"}, {"measurement": "Flux", "setting": "[2]; [14]", "value": "3.2 ± 0.0", "unit": "nmol/cm^2/h"}, {"measurement": "Lag time", "setting": "[2]; [14]", "value": "6.2 ± 0.0", "unit": "h"}, {"measurement": "24 h cumulative amt", "setting": "[2]; [3]", "value": "29.8 ± 3.3", "unit": "nmol"}, {"measurement": "24 h skin conc", "setting": "[2]; [3]", "value": "23.3 ± 1.7", "unit": "µmol/g"}, {"measurement": "Flux", "setting": "[2]; [3]", "value": "2.0 ± 0.3", "unit": "nmol/cm^2/h"}, {"measurement": "Lag time", "setting": "[2]; [3]", "value": "8.7 ± 0.3", "unit": "h"}, {"measurement": "24 h cumulative amt", "setting": "[2]; [15]", "value": "15.7 ± 4.5", "unit": "nmol"}, {"measurement": "24 h skin conc", "setting": "[2]; [15]", "value": "8.5 ± 3.5", "unit": "µmol/g"}, {"measurement": "Flux", "setting": "[2]; [15]", "value": "1.1 ± 0.3", "unit": "nmol/cm^2/h"}, {"measurement": "Lag time", "setting": "[2]; [15]", "value": "9.0 ± 0.7", "unit": "h"}]}
